Source: the supplement of paper PMC10307832

Assays:
Experiment in all cases: relative viability (nuclei count vs DMSO), 5 days (fraction); higher = more cells survive
LU99A = system: LU99A
Outline: (§1)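 Five library-drug doses in √10 steps were combined with a fixed anchor-drug dose, or a single drug was given alone, by pin tool to lung cancer cell lines in 1536-well plates the day after seeding. Nuclei were stained and counted after 5 days. Relative viability is the nuclei count in treated wells over that in vehicle wells, taken as the median of duplicate plates.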

NCI-H2347 = system: NCI-H2347
Outline: as §1

LC-2-ad = system: LC-2-ad
Outline: as §1

NCI-H2085 = system: NCI-H2085
Outline: as §1

SW 1573 = system: SW 1573
Outline: as §1

HCC-78 = system: HCC-78
Outline: as §1

PC-14 = system: PC-14
Outline: as §1

UMC-11 = system: UMC-11
Outline: as §1

HARA = system: HARA
Outline: as §1

NCI-H1355 = system: NCI-H1355
Outline: as §1

NCI-H2023 = system: NCI-H2023
Outline: as §1

NCI-H2126 = system: NCI-H2126
Outline: as §1

NCI-H1651 = system: NCI-H1651
Outline: as §1

NCI-H358 = system: NCI-H358
Outline: as §1

ABC-1 = system: ABC-1
Outline: as §1

NCI-H1993 = system: NCI-H1993
Outline: as §1

COR-L23 = system: COR-L23
Outline: as §1

NCI-H650 = system: NCI-H650
Outline: as §1

NCI-H838 = system: NCI-H838
Outline: as §1

EPLC-272H = system: EPLC-272H
Outline: as §1

NCI-H1915 = system: NCI-H1915
Outline: as §1

HCC-15 = system: HCC-15
Outline: as §1

`C=C1C(=O)O[C@@H](CCCCCCCC)[C@@H]1C(=O)O` [C-75] + Cc1nc(NC(=O)N2CCC[C@H]2C(N)=O)sc1-c1ccnc(C(C)(C)C(F)(F)F)c1 [Alpelisib] (partner 2 µM) gave a relative viability (LU99A; first compound 0.08 µM) of 0.537, a relative viability (LU99A; first compound 0.253 µM) of 0.547 and a relative viability (LU99A; first compound 0.8 µM) of 0.516. The relative viability (LU99A; first compound 2.53 µM) was 0.483, the relative viability (LU99A; first compound 8 µM) was 0.389 and the relative viability (NCI-H2347; first compound 0.08 µM) was 1.01. It also gave a relative viability (NCI-H2347; first compound 0.253 µM) of 0.987, a relative viability (NCI-H2347; first compound 0.8 µM) of 1.12 and a relative viability (NCI-H2347; first compound 2.53 µM) of 0.956. It also gave a relative viability (NCI-H2347; first compound 8 µM) of 1.09, a relative viability (LC-2-ad; first compound 0.08 µM) of 0.838 and a relative viability (LC-2-ad; first compound 0.253 µM) of 0.822. For the same compound, the relative viability (LC-2-ad; first compound 0.8 µM) was 0.828, the relative viability (LC-2-ad; first compound 8 µM) was 0.891 and the relative viability (NCI-H2085; first compound 0.08 µM) was 0.974. It also gave a relative viability (NCI-H2085; first compound 0.253 µM) of 1.1, a relative viability (NCI-H2085; first compound 0.8 µM) of 0.957 and a relative viability (NCI-H2085; first compound 2.53 µM) of 0.89. It also gave a relative viability (NCI-H2085; first compound 8 µM) of 0.898, a relative viability (SW 1573; first compound 0.08 µM) of 0.711 and a relative viability (SW 1573; first compound 0.253 µM) of 0.7. For the same compound, the relative viability (SW 1573; first compound 0.8 µM) was 0.638, the relative viability (SW 1573; first compound 2.53 µM) was 0.683 and the relative viability (SW 1573; first compound 8 µM) was 0.655. It also gave a relative viability (HCC-78; first compound 0.08 µM) of 0.297, a relative viability (HCC-78; first compound 0.253 µM) of 0.318 and a relative viability (HCC-78; first compound 0.8 µM) of 0.354. It also gave a relative viability (HCC-78; first compound 2.53 µM) of 0.336, a relative viability (HCC-78; first compound 8 µM) of 0.408 and a relative viability (PC-14; first compound 0.08 µM) of 0.897. It also gave a relative viability (PC-14; first compound 0.253 µM) of 1.02, a relative viability (PC-14; first compound 0.8 µM) of 0.904 and a relative viability (PC-14; first compound 2.53 µM) of 0.901. The relative viability (PC-14; first compound 8 µM) was 1.01, the relative viability (UMC-11; first compound 0.08 µM) was 0.927 and the relative viability (UMC-11; first compound 0.253 µM) was 1.15. It also gave a relative viability (UMC-11; first compound 0.8 µM) of 0.97, a relative viability (UMC-11; first compound 2.53 µM) of 0.909 and a relative viability (UMC-11; first compound 8 µM) of 0.786. The relative viability (HARA; first compound 0.08 µM) was 0.849, the relative viability (HARA; first compound 0.253 µM) was 1 and the relative viability (HARA; first compound 0.8 µM) was 0.767. It also gave a relative viability (HARA; first compound 8 µM) of 0.883, a relative viability (NCI-H1355; first compound 0.08 µM) of 0.815 and a relative viability (NCI-H1355; first compound 0.253 µM) of 0.825. For the same compound, the relative viability (NCI-H1355; first compound 0.8 µM) was 0.825, the relative viability (NCI-H1355; first compound 2.53 µM) was 0.835 and the relative viability (NCI-H1355; first compound 8 µM) was 0.886. For the same compound, the relative viability (NCI-H2023; first compound 0.08 µM) was 0.637, the relative viability (NCI-H2023; first compound 0.253 µM) was 0.715 and the relative viability (NCI-H2023; first compound 0.8 µM) was 0.592. For the same compound, the relative viability (NCI-H2023; first compound 2.53 µM) was 0.419, the relative viability (NCI-H2023; first compound 8 µM) was 0.543 and the relative viability (NCI-H2126; first compound 0.08 µM) was 0.79. For the same compound, the relative viability (NCI-H2126; first compound 0.253 µM) was 0.826, the relative viability (NCI-H2126; first compound 0.8 µM) was 0.732 and the relative viability (NCI-H2126; first compound 2.53 µM) was 0.621. It also gave a relative viability (NCI-H2126; first compound 8 µM) of 0.774, a relative viability (NCI-H1651; first compound 0.08 µM) of 0.871 and a relative viability (NCI-H1651; first compound 0.253 µM) of 0.988. The relative viability (NCI-H1651; first compound 0.8 µM) was 1.02, the relative viability (NCI-H1651; first compound 2.53 µM) was 0.793 and the relative viability (NCI-H1651; first compound 8 µM) was 0.882. For the same compound, the relative viability (NCI-H358; first compound 0.08 µM) was 0.851, the relative viability (NCI-H358; first compound 0.253 µM) was 0.735 and the relative viability (NCI-H358; first compound 0.8 µM) was 0.789. The relative viability (NCI-H358; first compound 2.53 µM) was 0.859, the relative viability (NCI-H358; first compound 8 µM) was 0.808 and the relative viability (ABC-1; first compound 0.08 µM) was 0.983. It also gave a relative viability (ABC-1; first compound 0.253 µM) of 1.12, a relative viability (ABC-1; first compound 0.8 µM) of 0.879 and a relative viability (ABC-1; first compound 2.53 µM) of 0.991. It also gave a relative viability (ABC-1; first compound 8 µM) of 0.585, a relative viability (NCI-H1993; first compound 0.08 µM) of 0.694 and a relative viability (NCI-H1993; first compound 0.253 µM) of 0.738. For the same compound, the relative viability (NCI-H1993; first compound 0.8 µM) was 0.66, the relative viability (NCI-H1993; first compound 2.53 µM) was 0.637 and the relative viability (NCI-H1993; first compound 8 µM) was 0.727. It also gave a relative viability (COR-L23; first compound 0.08 µM) of 0.762, a relative viability (COR-L23; first compound 0.253 µM) of 1.02 and a relative viability (COR-L23; first compound 0.8 µM) of 0.753. For the same compound, the relative viability (COR-L23; first compound 2.53 µM) was 0.741, the relative viability (COR-L23; first compound 8 µM) was 0.723 and the relative viability (NCI-H650; first compound 0.08 µM) was 1.1. For the same compound, the relative viability (NCI-H650; first compound 0.253 µM) was 0.874, the relative viability (NCI-H650; first compound 0.8 µM) was 1.08 and the relative viability (NCI-H650; first compound 2.53 µM) was 1.06. It also gave a relative viability (NCI-H650; first compound 8 µM) of 1.04, a relative viability (NCI-H838; first compound 0.08 µM) of 0.949 and a relative viability (NCI-H838; first compound 0.253 µM) of 0.675. The relative viability (NCI-H838; first compound 0.8 µM) was 0.928, the relative viability (NCI-H838; first compound 2.53 µM) was 0.79 and the relative viability (NCI-H838; first compound 8 µM) was 0.919. For the same compound, the relative viability (EPLC-272H; first compound 0.08 µM) was 0.95, the relative viability (EPLC-272H; first compound 0.253 µM) was 1.03 and the relative viability (EPLC-272H; first compound 0.8 µM) was 0.873. It also gave a relative viability (EPLC-272H; first compound 2.53 µM) of 0.732, a relative viability (EPLC-272H; first compound 8 µM) of 0.862 and a relative viability (NCI-H1915; first compound 0.08 µM) of 1.06. It also gave a relative viability (NCI-H1915; first compound 0.253 µM) of 1.09, a relative viability (NCI-H1915; first compound 0.8 µM) of 1.07 and a relative viability (NCI-H1915; first compound 2.53 µM) of 0.51. It also gave a relative viability (NCI-H1915; first compound 8 µM) of 1.01, a relative viability (HCC-15; first compound 0.08 µM) of 0.891 and a relative viability (HCC-15; first compound 0.253 µM) of 0.862. The relative viability (HCC-15; first compound 0.8 µM) was 0.873, the relative viability (HCC-15; first compound 2.53 µM) was 0.641 and the relative viability (HCC-15; first compound 8 µM) was 0.871.
